Experimental data: US9868692B2, “Compounds and compositions for intracellular delivery of therapeutic agents” (MODERNATX, Inc., priority 2015, dated 2018)

Test system: not listed separately
Experiment: Encapsulation efficiency of RNA, QUANT-IT RIBOGREEN RNA assay
Type: physicochemical
Conditions: Table 1A formulations
Source text: The efficiency of encapsulation of a therapeutic and/or prophylactic describes the amount of therapeutic and/or prophylactic that is encapsulated or otherwise associated with a nanoparticle composition after preparation, relative to the initial amount provided. The encapsulation efficiency is desirably high (e.g., close to 100%). The encapsulation efficiency may be measured, for example, by comparing the amount of therapeutic and/or prophylactic in a solution containing the nanoparticle composition before and after breaking up the nanoparticle composition with one or more organic solvents or detergents. Fluorescence may be used to measure the amount of free therapeutic and/or prophylactic (e.g., RNA) in a solution. For the nanoparticle compositions described herein, the encapsulation efficiency of a therapeutic and/or prophylactic may be at least 50%, for example 50%, 55%, 60%, 65%, 70%, 75%, 80%, 85%, 90%, 91%, 92%, 93%, 94%, 95%, 96%, 97%, 98%, 99%, or 100%. In some embodiments, the encapsulation efficiency may be at least 80%. In certain embodiments, the encapsulation efficiency may be at least 90%.
For nanoparticle compositions including an RNA, a QUANT-IT™ RIBOGREEN® RNA assay (Invitrogen Corporation Carlsbad, Calif.) can be used to evaluate the encapsulation of an RNA by the nanoparticle composition. The samples are diluted to a concentration of approximately 5 μg/mL in a TE buffer solution (10 mM Tris-HCl, 1 mM EDTA, pH 7.5). 50 μL of the diluted samples are transferred to a polystyrene 96 well plate and either 50 μL of TE buffer or 50 μL of a 2% Triton X-100 solution is added to the wells. The plate is incubated at a temperature of 37° C. for 15 minutes. The RIBOGREEN® reagent is diluted 1:100 in TE buffer, and 100 μL of this solution is added to each well. The fluorescence intensity can be measured using a fluorescence plate reader (Wallac Victor 1420 Multilablel Counter; Perkin Elmer, Waltham, Mass.) at an excitation wavelength of, for example, about 480 nm and an emission wavelength of, for example, about 520 nm. The fluorescence values of the reagent blank are subtracted from that of each of the samples and the percentage of free RNA is determined by dividing the fluorescence intensity of the intact sample (without addition of Triton X-100) by the fluorescence value of the disrupted sample (caused by the addition of Triton X-100).

EE (%)	Compound
85.7	CCCCCCCCCCCCN(CCO)CCCCCCCCCCCC(=O)OC [Compound 137, Methyl 12-(dodecyl(2-hydroxyethyl)amino)dodecanoate]

Test system: luciferase (Luc) mRNA expression
Experiment: Luc expression (total flux, bioluminescence) after intravenous administration to mice
Type: in vivo
Conditions: i.v., 0.5 mg/kg, 3, 6 and 24 hours, versus other compositions
Experimental: In order to monitor how effectively various nanoparticle compositions deliver therapeutic and/or prophylactics to targeted cells, different nanoparticle compositions including a particular therapeutic and/or prophylactic (for example, a modified or naturally occurring RNA such as an mRNA) are prepared and administered to rodent populations. Mice are intravenously, intramuscularly, intraarterially, or intratumorally administered a single dose including a nanoparticle composition with a formulation such as those provided in Example 3. In some instances, mice may be made to inhale doses. Dose sizes may range from 0.001 mg/kg to 10 mg/kg, where 10 mg/kg describes a dose including 10 mg of a therapeutic and/or prophylactic in a nanoparticle composition for each 1 kg of body mass of the mouse. A control composition including PBS may also be employed.
Upon administration of nanoparticle compositions to mice, dose delivery profiles, dose responses, and toxicity of particular formulations and doses thereof can be measured by enzyme-linked immunosorbent assays (ELISA), bioluminescent imaging, or other methods. For nanoparticle compositions including mRNA, time courses of protein expression can also be evaluated. Samples collected from the rodents for evaluation may include blood, sera, and tissue (for example, muscle tissue from the site of an intramuscular injection and internal tissue); sample collection may involve sacrifice of the animals.
The efficacy of the nanoparticle compositions presented in Table 1A was evaluated with a bioluminescence study. Formulations were administered intravenously to mice (n=6) at a dosage of 0.5 mg/kg (mpk) and bioluminescence measured at 3, 6, and 24 hour time points. The standard MC3 formulation and, in some instances, a control (e.g., a PBS control) were evaluated for comparison. […] In general, flux decreased as time progressed to less than 10% of the initial flux.
The total flux (measured by area under the curve, AUC) induced by administration of a formulation including a given lipid relative to that induced by administration of a formulation including MC3 was also measured for several lipids.

Compound	flux at all time points measured
CCCCCCCCCOC(=O)CCCCCCCN(CCCCCCCC(=O)OC(CCCCCCCC)CCCCCCCC)CCOC(C)=O [Compound 9, Heptadecan-9-yl 8-((2-acetoxyethyl)(8-(nonyloxy)-8-oxooctyl)amino) octanoate]	significantly lower flux
CCCCCCCCCOC(=O)CCCCCCCN(CCCCCCCC(=O)OC(CCCCCCCC)CCCCCCCC)CCOCCN(C)C [Compound 17, Heptadecan-9-yl 8-((2-(2-(dimethylamino)ethoxy)ethyl)(8-(nonyloxy)-8-oxooctyl)amino)octanoate]	significantly lower flux
CCCCCCCCCOC(=O)CCCCCCCN(CCO)CCCCCCCC(=O)OC(CCCC)CCCC [Compound 57, nonan-5-yl 8-((2-hydroxyethyl)(8-(nonyloxy)-8-oxooctyl)amino) octanoate]	significantly lower flux
CCCCCCCCCOC(=O)CCCCCCCN(CCO)CCCCCCCC(=O)OC(CCC)CCC [Compound 58, heptan-4-yl 8-((2-hydroxyethyl)(8-(nonyloxy)-8-oxooctyl)amino) octanoate]	significantly lower flux
CCCCCCCCCOC(=O)CCCCCCCN(CCO)CCCCCCCC(=O)OC(CC)CC [Compound 59, nonyl 8-((2-hydroxyethyl)(8-oxo-8-(pentan-3-yloxy)octyl)amino) octanoate]	significantly lower flux
CCCCCCCCCOC(=O)CCCCCCCN(CCCCCCCC(=O)OC(CCCCCCCC)CCCCCCCC)CCC(=O)O [Compound 125, 3-((8-(Heptadecan-9-yloxy)-8-oxooctyl)(8-(nonyloxy)-8-oxooctyl)amino)propanoic acid]	significantly lower flux
CCCCCCCCCCCCN(CCO)CCCCCCCCCCCC(=O)OC [Compound 137, Methyl 12-(dodecyl(2-hydroxyethyl)amino)dodecanoate]	significantly lower flux
CCCCCCCC/C=C\COC(=O)CCCCCN(CCO)CCCCCC(=O)OC/C=C\CCCCCCCC [Compound 140, Di((Z)-undec-2-en-1-yl) 6,6′-((2-hydroxyethyl)azanediyl)dihexanoate]	significantly lower flux
CCCCCCCCCCCOC(=O)CCCCCN(CCO)CCCCCC(=O)OCCCCCCCCCCC [Compound 141, Diundecyl 6,6′-((2-hydroxyethyl)azanediyl)dihexanoate]	significantly lower flux
CCCCCCCCCOC(=O)CCCCCCCN(CCO)CCCCCCCC(=O)OC(C)(C)C [Compound 158, tert-Butyl 8-((2-hydroxyethyl)(8-(nonyloxy)-8-oxooctyl)amino)octanoate]	significantly lower flux

Test system: not listed separately
Experiment: Particle size, polydispersity index (and zeta potential) of nanoparticle compositions, Zetasizer Nano ZS
Type: physicochemical
Conditions: Table 1A; lipid:DSPC:cholesterol:PEG-DMG 50:10:38.5:1.5 mol %, mRNA
Source text: Nanoparticle compositions may be characterized by a variety of methods. For example, microscopy (e.g., transmission electron microscopy or scanning electron microscopy) may be used to examine the morphology and size distribution of a nanoparticle composition. Dynamic light scattering or potentiometry (e.g., potentiometric titrations) may be used to measure zeta potentials. Dynamic light scattering may also be utilized to determine particle sizes. Instruments such as the Zetasizer Nano ZS (Malvern Instruments Ltd, Malvern, Worcestershire, UK) may also be used to measure multiple characteristics of a nanoparticle composition, such as particle size, polydispersity index, and zeta potential.
A Zetasizer Nano ZS (Malvern Instruments Ltd, Malvern, Worcestershire, UK) can be used to determine the particle size, the polydispersity index (PDI) and the zeta potential of the nanoparticle compositions in 1×PBS in determining particle size and 15 mM PBS in determining zeta potential.

Size (nm)	Compound
184.4	CCCCCCCCCCCCN(CCO)CCCCCCCCCCCC(=O)OC [Compound 137, Methyl 12-(dodecyl(2-hydroxyethyl)amino)dodecanoate]
